Article PMC8976378, “NADH oxidase of Mycoplasma hyopneumoniae functions as a potential mediator of virulence” (BMC Veterinary Research, 2022)

Target: rNOX (NADH oxidase, NOX) (Mesomycoplasma hyopneumoniae, UniProt E4QS87)
Assay: NADH oxidation, absorbance at […] nm
Type: biochemical
Details: 0.5 mM NADH; 10 uM FAD added; 0.1 M potassium phosphate pH 7.5, 1 mM dithiothreitol; 25 °C; 5 ug/mL enzyme

Sequence of rNOX (NADH oxidase, NOX) (E4QS87 entry or part of it): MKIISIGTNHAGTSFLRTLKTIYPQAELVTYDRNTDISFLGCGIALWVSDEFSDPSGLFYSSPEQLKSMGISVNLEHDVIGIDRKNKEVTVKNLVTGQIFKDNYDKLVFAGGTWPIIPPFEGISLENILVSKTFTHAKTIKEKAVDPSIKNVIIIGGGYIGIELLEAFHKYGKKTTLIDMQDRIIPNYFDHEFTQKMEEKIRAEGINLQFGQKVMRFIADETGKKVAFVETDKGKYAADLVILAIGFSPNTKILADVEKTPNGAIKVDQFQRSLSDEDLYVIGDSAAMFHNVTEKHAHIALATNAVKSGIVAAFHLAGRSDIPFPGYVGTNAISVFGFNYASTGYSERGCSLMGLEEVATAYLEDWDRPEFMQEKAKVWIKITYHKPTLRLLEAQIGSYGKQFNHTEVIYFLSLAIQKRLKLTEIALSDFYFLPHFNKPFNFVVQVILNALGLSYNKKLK

**Q.** Which “NADH oxidation, absorbance at 340 nm” value does the source give for `NC(=O)C1=CN([C@@H]2O[C@H](COP(=O)(O)OP(=O)(O)OC[C@H]3O[C@@H](n4cnc5c(N)ncnc54)[C@H](O)[C@@H]3O)[C@@H](O)[C@H]2O)C=CC1` [NADH] here?
**A.** enzymatic activity of purified rNOX was determined by measuring the oxidation of NADH to NAD^+
